Molecules are shown by their SMILES. Values after ≈ are worked out from the molar mass of the structure shown.

For assay [1], the system named is S. aureus (USA300 MRSA, BAA-1556). The assay can be described thus: S. aureus dermal infection model in ICR mice, CFU/skin. It is filed as in vivo, Staphylococcus aureus. The conditions noted are these: 25 hours post inoculation; topical BID at 1 and 7 h post infection, 20 μL/mouse; 6027 1% in DMSO, fusidic acid 2%. As to the method:
Inoculum preparation. The testing strain, S. aureus USA300 MRSA (BAA-1556), was obtained from the frozen working stock and thawed at room temperature. A 0.2 mL aliquot was inoculated into 20 mL Brain-Heart Infusion broth (BHI) and then incubated at 35-37° C. with shaking (120 rpm) for 8 h. Bacterial cells in the 20 mL culture were pelleted by centrifugation at 3,500×g for 15 minutes and then re-suspended in 10 mL cold PBS (>8.0×10^9 CFU/mL, OD620 1.8-2.0). The culture was then diluted in PBS to the target inoculum of 1.0×10^7 CFU/mL. The actual bacterial counts were determined by plating dilutions onto nutrient agar (NA) plates followed by 20-24 h incubation and colony counting. The actual CFU counts were 1.04×10^7 CFU/mL.
S. aureus (USA300 MRSA, BAA-1556) dermal infection model. Groups of 5 female ICR mice weighing 24±2 g were used. Animals were anesthetized with etomidate-lipuro emulsion (20 mg/10 mL) at 20 mg/kg by intravenous (IV) injection, and then the fur on the back was removed by an electric shaver, and the epidermal layer was disrupted with an abrasive paper. Mice were inoculated topically (TOP) on the wound area with S. aureus (MRSA, BAA-1556) suspension, 5 μL/mouse. The target inoculation density was 5×10^4 CFU/mouse and the actual inoculum count 5.2×10^4 CFU/mouse. Animals were housed separately after infection. Compound 6027 in DMSO at 1% was administered topically (TOP) twice (BID) at 1 and 7 h post infection. Reference control agent, fusidic acid cream at 20 mg/gram (2%), was administered TOP BID at 1 and 7 h post infection. One infected and untreated group was sacrificed at 1 h after infection for the initial (baseline) bacterial counts. The dose volumes were 20 μL/mouse for all dosing groups.
Animals were sacrificed at 1 or 25 h after inoculation with CO2 asphyxiation. The infected skin samples of the wound infection (around 2 cm 2 areas) were excised and were homogenized in 1 mL PBS (pH 7.4) with a polytron homogenizer. A 0.1 mL aliquot of each homogenate was used for serial 10-fold dilutions and plated onto NA plates for bacterial enumeration. The bacterial counts (CFU/skin) in skin tissues were calculated and the percentage decrease in counts compared to the corresponding vehicle control (placebo) was calculated with the following formula: Decrease (%)=[(CFU/skin of placebo —CFU/skin of treatment)/(CFU/skin of placebo)]×100%.

The test system of assay [2] is Staphylococcus aureus ECL 2963646. The assay can be described thus: microbe, parasite or virus in culture. It is filed as cell-based. The conditions noted are these: Staphylococcus aureus, ECL2963646, reference compound, read-out: MIC (Concurrent).
The test system of assay [3] is Staphylococcus aureus ATCC BAA-1556. The assay can be described thus: microbe, parasite or virus in culture. It counts as cell-based. The conditions noted are these: Staphylococcus aureus, ATCCBAA1556; reference compound; ATCC BAA-1556, Methicillin resistant; read-out: MIC (Concurrent).
Assay [4] relates to Staphylococcus aureus NARSA NRS22. The assay can be described thus: microbe, parasite or virus in culture. It is filed as cell-based. The conditions noted are these: Staphylococcus aureus, reference compound, read-out: MIC (Concurrent).
Assay [5] has as its system Staphylococcus aureus NARSA VRS2. The assay can be described thus: microbe, parasite or virus in culture. The conditions noted are these: Staphylococcus aureus, reference compound, read-out: MIC (Concurrent). It counts as cell-based.
Assay [6] concerns Streptococcus pyogenes ATCC 19615. Description: MIC broth microdilution, method 1. It is filed as cell-based. As to conditions: Streptococcus pyogenes, ATCC19615, reference compound, read-out: MIC (Concurrent). (In broth dilution the organism is exposed to a series of concentrations in liquid medium.)
Assay [7] concerns Staphylococcus aureus NARSA NRS119. Description: microbe, parasite or virus in culture. It counts as cell-based. The conditions noted are these: Staphylococcus aureus, NRS119, read-out: MIC (Concurrent) μg/mL.
The test system of assay [8] is Staphylococcus aureus ATCC BAA-1556, USA300 MRSA. Description: microbe, parasite or virus in culture. It counts as cell-based. As to conditions: Staphylococcus aureus. The protocol:
Pre-formulated compound solution was diluted in 100% DMSO to prepare a 1.6 mg/mL working stock solution. […] The concentration range was 0.032 to 32 μg/mL.

Assay [9] relates to Staphylococcus aureus NARSA NRS383. The assay can be described thus: microbe, parasite or virus in culture. It counts as cell-based. As to conditions: Staphylococcus aureus, NRS383, read-out: MIC (Concurrent) μg/mL.
Assay [10] has as its system Staphylococcus aureus NARSA NRS382. Description: microbe, parasite or virus in culture. It counts as cell-based. The conditions noted are these: Staphylococcus aureus, NRS382, read-out: MIC (Concurrent) μg/mL.
Assay [11] deals with Staphylococcus aureus NARSA NRS127. The assay can be described thus: microbe, parasite or virus in culture. It counts as cell-based. The conditions noted are these: Staphylococcus aureus, NRS127, read-out: MIC (Concurrent) μg/mL.
For assay [12], the system named is Clostridium difficile ATCC BAA-1805. The assay can be described thus: microbe, parasite or virus in culture. As to conditions: Clostridioides difficile, ATCCBAA1805, read-out: MIC (Concurrent) μg/mL.
Method: The antibacterial activity of inventive compounds was determined in duplicate in a Minimum Inhibitory Concentration (MIC) assay.
The antibacterial activity of 6027 acetate was measured using the in vitro broth microdilution assay under assay conditions described by the Clinical and Laboratory Standards Institute. […] Pre-formulated DMSO stock solution (26.67 mg/mL) was provided by sponsor. The 26.67 mg/mL stock solution was then diluted in DMSO to prepare a 6.4 mg/mL working stock solution. The 6.4 mg/mL working stock solution was diluted by 2-fold serial titrations in DMSO, for a total of 11 test concentrations. A 4 μl aliquot of each dilution was added to 196 of broth medium seeded with the organism suspension in wells of a 96 well plate (bacterial count: 2 −8×10^5 colony forming units/mL final). The final volume was 200 μl in each well and the final DMSO concentration was 2 percent. Test concentrations were 128 to 0.125 μg/mL.
Following incubation, the plates were visually examined, and wells were scored for growth or complete growth inhibition to define the minimum inhibitory concentration. […] Vehicle-control and Vancomycin or Linezolid, as depicted at Table 8, were used as blank and positive controls, respectively.
Assay [13] concerns Staphylococcus aureus ATCC 29213. Description: MIC broth microdilution, method 1. As to conditions: Staphylococcus aureus, ATCC29213, reference compound, read-out: MIC (Concurrent). It counts as cell-based.
In assay [14] the test system is Streptococcus agalactiae ATCC 12386. Description: MIC broth microdilution, method 1. It counts as cell-based. The conditions noted are these: Streptococcus agalactiae, ATCC12386, reference compound, read-out: MIC (Concurrent).
The subject of assay [15] is Staphylococcus aureus ATCC BAA-1717. The assay can be described thus: microbe, parasite or virus in culture. As to conditions: Staphylococcus aureus, ATCCBAA1717, read-out: MIC (Concurrent) μg/mL. It counts as cell-based.
Assay [16] has as its system Staphylococcus aureus ATCC 33591. Description: microbe, parasite or virus in culture. It is filed as cell-based. The conditions noted are these: Staphylococcus aureus, ATCC33591, read-out: MIC (Concurrent) μg/mL.

Turning to `CC(=O)O[C@H]1C[C@@]2(C)[C@@H](C[C@@H](O)[C@H]3[C@@]4(C)CC[C@@H](O)[C@@H](C)[C@@H]4CC[C@@]32C)/C1=C(\CCC=C(C)C)C(=O)O` [Fusidic acid, fusidic acid, reference compound], in assay [1], the “Decrease (%) in CFU/skin vs vehicle control” value turned out to be 99% and the “LogCFU/skin after 25 hours (Standard error of the mean − SEM)” value was 4.82 (0.26) LogCFU/skin.
As for `CC(=O)NC[C@H]1CN(c2ccc(N3CCOCC3)c(F)c2)C(=O)O1` [Linezolid, reference compound], the MIC in assay [2], in assay [3], in [4] and in assay [5] was 2 µg/mL (≈ 5.93 µM) throughout.
In the case of `CN[C@H](CC(C)C)C(=O)N[C@H]1C(=O)N[C@@H](CC(N)=O)C(=O)N[C@H]2C(=O)N[C@H]3C(=O)N[C@H](C(=O)N[C@H](C(=O)O)c4cc(O)cc(O)c4-c4cc3ccc4O)[C@H](O)c3ccc(c(Cl)c3)Oc3cc2cc(c3O[C@@H]2O[C@H](CO)[C@@H](O)[C@H](O)[C@H]2O[C@H]2C[C@](C)(N)[C@H](O)[C@H](C)O2)Oc2ccc(cc2Cl)[C@H]1O` [Vancomycin, reference compound], the MIC was 0.25 µg/mL (≈ 0.173 µM) in assay [6]; 1 µg/mL (≈ 0.69 µM) in assay [7]; 1 µg/mL (≈ 0.69 µM) in assay [8]; 0.5 µg/mL (≈ 0.345 µM) in assay [9]; 1 µg/mL (≈ 0.69 µM) in assay [10]; 1 µg/mL (≈ 0.69 µM) in [11]. In addition, the MIC stood at 0.5 µg/mL (≈ 0.345 µM) in [12]; 0.5 µg/mL (≈ 0.345 µM) in [13]; 0.5 µg/mL (≈ 0.345 µM) in assay [14]; 0.5 µg/mL (≈ 0.345 µM) in [15]; 1 µg/mL (≈ 0.69 µM) in assay [16].

For the origin of these results see patent US20240174714A1, “TREATMENT OF SKIN DISORDERS” (priority 2021, published 2024).
